These results are taken from patent US12612441B2, “Polypeptide and therapeutic uses thereof” (Vitalixir (Beijing) Co., Ltd, priority 2019, dated 2026).

Where no end group is shown, it is not given here. [ ]: non-standard residue; d: D form. Aib = CC(C)(N)C(=O)O

This experiment has as its system db/db mice. Briefly: Blood glucose lowering in db/db mice (Example 7). Particulars: db/db male mice, 30 nmol/kg subcutaneous single dose, blood glucose 0-10 hours, AUC, vs PBS control; FIG. 1. Type of experiment: in vivo. How it is done: db/db mice were housed in animal feeding rooms with strictly controlled environmental conditions. The temperature in the feeding room was maintained at 20-24° C. and the humidity was maintained at 40-70%. The temperature and humidity of the feeding room were monitored in real time by a temperature and humidity meter, and the temperature and humidity were recorded twice a day (once in the morning and once in the afternoon). The lighting in the animal feeding room was controlled by an electronic timing light-on system. The lights were turned on for 12 hours and turned off for 12 hours every day (on at 7:00 in the morning and off at 19:00 in the afternoon). During the experiment, the mice were individually housed in each cage, and toys were provided to the mice in each cage. During the experiment mice had free access to water. The db/db male mice (6 weeks old) were given one week to acclimate to the environmental conditions of the test facility. Baseline blood glucose and body weight were recorded for three days before the test (−3 day to −1 day). The mice were randomly grouped based on three-day blood glucose and body weight, with 6 mice in each group. The mice were injected subcutaneously with PBS (5 ml/kg, control group) or the peptide compounds 1, 2, 8, 16, 18, 19, 24, and 36 (30 nmol/kg) respectively at 10:00 am. Blood was collected at 0 hour before drug administration, and 1, 2, 4, 6, 8 and 10 hours after administration, and blood glucose was measured using a OneTouch glucose meter (Johnson & Johnson) and test strips. Blood glucose curves were plotted with time as the abscissa and the blood glucose value at different time point as the ordinate, the areas under the curve (AUC) were calculated, and the hypoglycemic effects and duration of time of the peptide compounds were compared.
Regarding “Y(aib)EGTFTSDYSIYLDEEAVKLFVNWLIAGGPSSGAPPPS-NH2 (Y[Aib]EGTFTSDYSIYLDEEAVKLFVNWLIAGGPSSGAPPPS-NH2; N-terminus assumed; SMILES CC[C@H](C)[C@H](NC(=O)[C@H](CC(C)C)NC(=O)[C@H](Cc1c[nH]c2ccccc12)NC(=O)[C@H](CC(N)=O)NC(=O)[C@@H](NC(=O)[C@H](Cc1ccccc1)NC(=O)[C@H](CC(C)C)NC(=O)[C@H](CCCCN)NC(=O)[C@@H](NC(=O)[C@H](C)NC(=O)[C@H](CCC(=O)O)NC(=O)[C@H](CCC(=O)O)NC(=O)[C@H](CC(=O)O)NC(=O)[C@H](CC(C)C)NC(=O)[C@H](Cc1ccc(O)cc1)NC(=O)[C@@H](NC(=O)[C@H](CO)NC(=O)[C@H](Cc1ccc(O)cc1)NC(=O)[C@H](CC(=O)O)NC(=O)[C@H](CO)NC(=O)[C@@H](NC(=O)[C@H](Cc1ccccc1)NC(=O)[C@@H](NC(=O)CNC(=O)[C@H](CCC(=O)O)NC(=O)C(C)(C)NC(=O)[C@@H](N)Cc1ccc(O)cc1)[C@@H](C)O)[C@@H](C)O)[C@@H](C)CC)C(C)C)C(C)C)C(=O)N[C@@H](C)C(=O)NCC(=O)NCC(=O)N1CCC[C@H]1C(=O)N[C@@H](CO)C(=O)N[C@@H](CO)C(=O)NCC(=O)N[C@@H](C)C(=O)N1CCC[C@H]1C(=O)N1CCC[C@H]1C(=O)N1CCC[C@H]1C(=O)N[C@@H](CO)C(N)=O) [Compound 2]”, the blood glucose result is recorded as “significantly reduce blood glucose”. Turning to “Y(aib)EGTFTSDLSIQLEKEAVRLFIEWLLAGGPSSGAPPPS-NH2 (Y[Aib]EGTFTSDLSIQLEKEAVRLFIEWLLAGGPSSGAPPPS-NH2; N-terminus assumed; SMILES CC[C@H](C)[C@H](NC(=O)[C@H](CO)NC(=O)[C@H](CC(C)C)NC(=O)[C@H](CC(=O)O)NC(=O)[C@H](CO)NC(=O)[C@@H](NC(=O)[C@H](Cc1ccccc1)NC(=O)[C@@H](NC(=O)CNC(=O)[C@H](CCC(=O)O)NC(=O)C(C)(C)NC(=O)[C@@H](N)Cc1ccc(O)cc1)[C@@H](C)O)[C@@H](C)O)C(=O)N[C@@H](CCC(N)=O)C(=O)N[C@@H](CC(C)C)C(=O)N[C@@H](CCC(=O)O)C(=O)N[C@@H](CCCCN)C(=O)N[C@@H](CCC(=O)O)C(=O)N[C@@H](C)C(=O)N[C@H](C(=O)N[C@@H](CCCNC(=N)N)C(=O)N[C@@H](CC(C)C)C(=O)N[C@@H](Cc1ccccc1)C(=O)N[C@H](C(=O)N[C@@H](CCC(=O)O)C(=O)N[C@@H](Cc1c[nH]c2ccccc12)C(=O)N[C@@H](CC(C)C)C(=O)N[C@@H](CC(C)C)C(=O)N[C@@H](C)C(=O)NCC(=O)NCC(=O)N1CCC[C@H]1C(=O)N[C@@H](CO)C(=O)N[C@@H](CO)C(=O)NCC(=O)N[C@@H](C)C(=O)N1CCC[C@H]1C(=O)N1CCC[C@H]1C(=O)N1CCC[C@H]1C(=O)N[C@@H](CO)C(N)=O)[C@@H](C)CC)C(C)C) [Compound 19]”, the blood glucose entry is recorded as “significantly reduce blood glucose”. On to “Y(aib)EGTFTSDLSIQLEKEAVKLFIEWLLAGGPSSGAPPPS-NH2 (Y[Aib]EGTFTSDLSIQLEKEAVKLFIEWLLAGGPSSGAPPPS-NH2; N-terminus assumed; SMILES CC[C@H](C)[C@H](NC(=O)[C@H](CO)NC(=O)[C@H](CC(C)C)NC(=O)[C@H](CC(=O)O)NC(=O)[C@H](CO)NC(=O)[C@@H](NC(=O)[C@H](Cc1ccccc1)NC(=O)[C@@H](NC(=O)CNC(=O)[C@H](CCC(=O)O)NC(=O)C(C)(C)NC(=O)[C@@H](N)Cc1ccc(O)cc1)[C@@H](C)O)[C@@H](C)O)C(=O)N[C@@H](CCC(N)=O)C(=O)N[C@@H](CC(C)C)C(=O)N[C@@H](CCC(=O)O)C(=O)N[C@@H](CCCCN)C(=O)N[C@@H](CCC(=O)O)C(=O)N[C@@H](C)C(=O)N[C@H](C(=O)N[C@@H](CCCCN)C(=O)N[C@@H](CC(C)C)C(=O)N[C@@H](Cc1ccccc1)C(=O)N[C@H](C(=O)N[C@@H](CCC(=O)O)C(=O)N[C@@H](Cc1c[nH]c2ccccc12)C(=O)N[C@@H](CC(C)C)C(=O)N[C@@H](CC(C)C)C(=O)N[C@@H](C)C(=O)NCC(=O)NCC(=O)N1CCC[C@H]1C(=O)N[C@@H](CO)C(=O)N[C@@H](CO)C(=O)NCC(=O)N[C@@H](C)C(=O)N1CCC[C@H]1C(=O)N1CCC[C@H]1C(=O)N1CCC[C@H]1C(=O)N[C@@H](CO)C(N)=O)[C@@H](C)CC)C(C)C) [Compound 24]”, for which the blood glucose entry was “significantly reduce blood glucose”. The entry for “Y(aib)EGTFTSDYSIYLEKEAVRLFVNWLIAGGPSSGAPPPS-NH2 (Y[Aib]EGTFTSDYSIYLEKEAVRLFVNWLIAGGPSSGAPPPS-NH2; N-terminus assumed; SMILES CC[C@H](C)[C@H](NC(=O)[C@H](CC(C)C)NC(=O)[C@H](Cc1c[nH]c2ccccc12)NC(=O)[C@H](CC(N)=O)NC(=O)[C@@H](NC(=O)[C@H](Cc1ccccc1)NC(=O)[C@H](CC(C)C)NC(=O)[C@H](CCCNC(=N)N)NC(=O)[C@@H](NC(=O)[C@H](C)NC(=O)[C@H](CCC(=O)O)NC(=O)[C@H](CCCCN)NC(=O)[C@H](CCC(=O)O)NC(=O)[C@H](CC(C)C)NC(=O)[C@H](Cc1ccc(O)cc1)NC(=O)[C@@H](NC(=O)[C@H](CO)NC(=O)[C@H](Cc1ccc(O)cc1)NC(=O)[C@H](CC(=O)O)NC(=O)[C@H](CO)NC(=O)[C@@H](NC(=O)[C@H](Cc1ccccc1)NC(=O)[C@@H](NC(=O)CNC(=O)[C@H](CCC(=O)O)NC(=O)C(C)(C)NC(=O)[C@@H](N)Cc1ccc(O)cc1)[C@@H](C)O)[C@@H](C)O)[C@@H](C)CC)C(C)C)C(C)C)C(=O)N[C@@H](C)C(=O)NCC(=O)NCC(=O)N1CCC[C@H]1C(=O)N[C@@H](CO)C(=O)N[C@@H](CO)C(=O)NCC(=O)N[C@@H](C)C(=O)N1CCC[C@H]1C(=O)N1CCC[C@H]1C(=O)N1CCC[C@H]1C(=O)N[C@@H](CO)C(N)=O) [Compound 8]” is “significantly reduce blood glucose”. For “Y(aib)EGTFTSDYSIYLDEEAVRLFVNWLIAGGPSSGAPPPS-NH2 (Y[Aib]EGTFTSDYSIYLDEEAVRLFVNWLIAGGPSSGAPPPS-NH2; N-terminus assumed; SMILES CC[C@H](C)[C@H](NC(=O)[C@H](CC(C)C)NC(=O)[C@H](Cc1c[nH]c2ccccc12)NC(=O)[C@H](CC(N)=O)NC(=O)[C@@H](NC(=O)[C@H](Cc1ccccc1)NC(=O)[C@H](CC(C)C)NC(=O)[C@H](CCCNC(=N)N)NC(=O)[C@@H](NC(=O)[C@H](C)NC(=O)[C@H](CCC(=O)O)NC(=O)[C@H](CCC(=O)O)NC(=O)[C@H](CC(=O)O)NC(=O)[C@H](CC(C)C)NC(=O)[C@H](Cc1ccc(O)cc1)NC(=O)[C@@H](NC(=O)[C@H](CO)NC(=O)[C@H](Cc1ccc(O)cc1)NC(=O)[C@H](CC(=O)O)NC(=O)[C@H](CO)NC(=O)[C@@H](NC(=O)[C@H](Cc1ccccc1)NC(=O)[C@@H](NC(=O)CNC(=O)[C@H](CCC(=O)O)NC(=O)C(C)(C)NC(=O)[C@@H](N)Cc1ccc(O)cc1)[C@@H](C)O)[C@@H](C)O)[C@@H](C)CC)C(C)C)C(C)C)C(=O)N[C@@H](C)C(=O)NCC(=O)NCC(=O)N1CCC[C@H]1C(=O)N[C@@H](CO)C(=O)N[C@@H](CO)C(=O)NCC(=O)N[C@@H](C)C(=O)N1CCC[C@H]1C(=O)N1CCC[C@H]1C(=O)N1CCC[C@H]1C(=O)N[C@@H](CO)C(N)=O) [Compound 1]” the value was “significantly reduce blood glucose”; for “Y(aib)EGTFTSDLSI(aib)LEKEAVRLFIEWLLAGGPSSGAPPPS-NH2 (YXEGTFTSDLSIXLEKEAVRLFIEWLLAGGPSSGAPPPS; Aib; C-terminal amide; MOD_RES (2)..(2) X=aminoisobutyric aicd; MOD_RES (13)..(13) X=aminoisobutyric aicd; MOD_RES (39)..(39) AMIDATION, C-termianl amidation) [Compound 36]”, “significantly reduce blood glucose”. The entry for “Y(aib)EGTFTSDLSIQLEKEAARLFIEWLLAGGPSSGAPPPS-NH2 (Y[Aib]EGTFTSDLSIQLEKEAARLFIEWLLAGGPSSGAPPPS-NH2; N-terminus assumed; SMILES CC[C@H](C)[C@H](NC(=O)[C@H](Cc1ccccc1)NC(=O)[C@H](CC(C)C)NC(=O)[C@H](CCCNC(=N)N)NC(=O)[C@H](C)NC(=O)[C@H](C)NC(=O)[C@H](CCC(=O)O)NC(=O)[C@H](CCCCN)NC(=O)[C@H](CCC(=O)O)NC(=O)[C@H](CC(C)C)NC(=O)[C@H](CCC(N)=O)NC(=O)[C@@H](NC(=O)[C@H](CO)NC(=O)[C@H](CC(C)C)NC(=O)[C@H](CC(=O)O)NC(=O)[C@H](CO)NC(=O)[C@@H](NC(=O)[C@H](Cc1ccccc1)NC(=O)[C@@H](NC(=O)CNC(=O)[C@H](CCC(=O)O)NC(=O)C(C)(C)NC(=O)[C@@H](N)Cc1ccc(O)cc1)[C@@H](C)O)[C@@H](C)O)[C@@H](C)CC)C(=O)N[C@@H](CCC(=O)O)C(=O)N[C@@H](Cc1c[nH]c2ccccc12)C(=O)N[C@@H](CC(C)C)C(=O)N[C@@H](CC(C)C)C(=O)N[C@@H](C)C(=O)NCC(=O)NCC(=O)N1CCC[C@H]1C(=O)N[C@@H](CO)C(=O)N[C@@H](CO)C(=O)NCC(=O)N[C@@H](C)C(=O)N1CCC[C@H]1C(=O)N1CCC[C@H]1C(=O)N1CCC[C@H]1C(=O)N[C@@H](CO)C(N)=O) [Compound 18]” is “significantly reduce blood glucose”.
